In assay [1] the test system is Ba/F3 cells expressing ΔEC-FGFR1. Nature of the assay: Screening of Ba/F3 cells expressing ΔEC-FGFR1 with FGFR inhibitors (cellular ATP content after 96 hours). Format: cell-based, murine. Conditions: IL3 depleted conditions. The text has this: Located genes in this region (middle, bottom; positive strand, negative strand), break coverage (top), location of tail-to-tail breaks (arrows and black dashed lines) are shown. Normal exon structure of NSD3 and FGFR1 with the genomic breaks are indicated by an asterisk independent of the chromosomal position shown above (bottom). b) Resulting rearrangement of the t-to-t break (dashed lines, top) and spanning reads from whole transcriptome sequencing data (bottom) is shown. c) PCR from corresponding cDNA with two different primer pairs, spanning the t-to-t break and FGFR1 (left) and matched normal cDNA (right) d) Hybrid-capture-based genomic sequencing (468×depth) copy number plot zoomed to the location of FGFR1 (middle). Tumor sample is from a patient with unknown response upon FGFR inhibition. Normal exon structure of FGFR1 (bottom), location of a tail-to-tail break (arrows), and break coverage (top) is shown. e) The resulting rearrangement of the t-to-t break is shown (dashed lines). f) Break spanning reads detected by ARCHER sequencing technique are indicated. g) Immunoblotting of transformed Baf3 cells (Baf3 FGFR1 AEC and Baf3 EML4-ALK as control) vs. non-transformed Baf3 cells transduced with empty Vector (Baf3 e.V.), FGFR1 alpha (Baf3 FGFR1aplpa), and FGFR1 beta (Baf3 FGFR1beta). […]

Assay [2] deals with FGFR1 amplified patient derived xenograft (PDX) models of squamous cell lung cancer. In words: Patient derived xenograft tumor models treated with BG.J398 vs. vehicle. To be noted: 20 mg/kg daily oral. The class given is in vivo, mice. As to the method:
Bars are indicated by number (1) (GI50>1 μM) or number (2) (GI50>1 μM) b) Average copy number of 6 cell lines not sensitive upon FGFR inhibition (marked by number (1)) and 2 cell lines which are sensitive upon FGFR inhibition (marked by number (2)). Copy number was extracted from genomic sequencing or whole exome sequencing data and plotted to chromosome 8 (hg19) with ROBOCOP. Location of NSD3 and FGFR1 with grey-backed surface c) Average tumor growth reduction of 8 patient derived xenograft tumor models treated with BG.J398 vs. vehicle. All models were confirmed to be FGFR1 amplified by FGFR1 FISH. Each bar represents an experiment of at least six mice and 12 tumors. Bars are marked by number (1) (tumor reduction of <30%) or by number (2) (tumor reduction of >30%). d) Average copy number of 5 patient derived xenograft tumor models not benefitting from FGFR inhibition (marked by number (1)) and 3 patient derived xenograft tumor (PDX) models which benefit from FGFR inhibition (marked by number (2)). Copy number was extracted from genomic sequencing data and plotted to chromosome 8 (hg19) with ROBOCOP. e) Tumor volume change of patients with squamous cell lung cancer harboring FGFR1 amplification and treated with BG.J398. Tumor volume change was measured by RECIST criteria. […] TUM003 and TUM007 died during treatment and no sign of response. * labeled sample was an of label FGFR inhibitor treated patient where no RECIST data were available. f) Average copy number of 5 patients with progressive disease (marked by number (2)) and 4 patients with durable, partial response upon FGFR inhibition (marked by number (1), one patient was treated with an off label used FGFR inhibitor (GW786034 HCl). […]
Furthermore, the inventors analysed patient-derived 8p12-8p11-amplified squamous cell lung cancer xenotransplant models. In total, the inventors performed FGFR1 fluorescence in situ hybridization (FISH) on 35 patient derived xenograft (PDX) models from EpoBerlin, 39 PDX models from Crown Bioscience Inc., 3 samples of Moro Massimo as previously described. […]

In assay [3] the test system is FGFR1-amplified lung cancer cell lines. Nature of the assay: GI50 screening of FGFR1-amplified lung cancer cell lines against FGFR inhibitors (6 resistant lines). Format: cell-based. Conditions: 6 of 8 FGFR1-amplified lung cancer cell lines, read-out: half-growth-inhibitory concentration, or GI50. How it is done: (§1) Bars are indicated by number (1) (GI50>1 μM) or number (2) (GI50>1 μM) b) Average copy number of 6 cell lines not sensitive upon FGFR inhibition (marked by number (1)) and 2 cell lines which are sensitive upon FGFR inhibition (marked by number (2)). Copy number was extracted from genomic sequencing or whole exome sequencing data and plotted to chromosome 8 (hg19) with ROBOCOP. Location of NSD3 and FGFR1 with grey-backed surface c) Average tumor growth reduction of 8 patient derived xenograft tumor models treated with BG.J398 vs. vehicle. All models were confirmed to be FGFR1 amplified by FGFR1 FISH. Each bar represents an experiment of at least six mice and 12 tumors. Bars are marked by number (1) (tumor reduction of <30%) or by number (2) (tumor reduction of >30%). d) Average copy number of 5 patient derived xenograft tumor models not benefitting from FGFR inhibition (marked by number (1)) and 3 patient derived xenograft tumor (PDX) models which benefit from FGFR inhibition (marked by number (2)). […]
(§2) To gain a deeper understanding of 8p11-8p12-amplified lung cancer tumors and to link specific patterns of the 8p12-8p11 amplicon structure with FGFR1 dependency, the inventors analyzed an independent cohort of 26 8p-amplified tumor specimens with known sensitivity to FGFR inhibition. […]

Assay [4] concerns FGFR1-amplified squamous cell lung cancer. In words: Patients with FGFR1-amplified squamous cell lung cancer treated with an FGFR inhibitor (phase I clinical trial / off-label use). The class given is in vivo, human. To be noted: 8 patients treated with BG.J398, phase I clinical trial. How it is done: Bars are indicated by number (1) (GI50>1 μM) or number (2) (GI50>1 μM) b) Average copy number of 6 cell lines not sensitive upon FGFR inhibition (marked by number (1)) and 2 cell lines which are sensitive upon FGFR inhibition (marked by number (2)). Copy number was extracted from genomic sequencing or whole exome sequencing data and plotted to chromosome 8 (hg19) with ROBOCOP. Location of NSD3 and FGFR1 with grey-backed surface c) Average tumor growth reduction of 8 patient derived xenograft tumor models treated with BG.J398 vs. vehicle. All models were confirmed to be FGFR1 amplified by FGFR1 FISH. Each bar represents an experiment of at least six mice and 12 tumors. Bars are marked by number (1) (tumor reduction of <30%) or by number (2) (tumor reduction of >30%). d) Average copy number of 5 patient derived xenograft tumor models not benefitting from FGFR inhibition (marked by number (1)) and 3 patient derived xenograft tumor (PDX) models which benefit from FGFR inhibition (marked by number (2)). Copy number was extracted from genomic sequencing data and plotted to chromosome 8 (hg19) with ROBOCOP. e) Tumor volume change of patients with squamous cell lung cancer harboring FGFR1 amplification and treated with BG.J398. […]
Finally, the inventors analyzed biopsy specimens obtained from 10 patients with FGFR1-amplified squamous cell lung cancer. […]

For the next assay, the system named is H1581. In words: GI50 screening of FGFR1-amplified lung cancer cell lines against FGFR inhibitors. The class given is cell-based. Conditions: Homo sapiens, NCI-H1581; sensitive cell line H1581; read-out: half-growth-inhibitory concentration, or GI50. How it is done: as §1, §2
The next assay concerns DMS114. Described as above. Format: cell-based. Conditions: Homo sapiens, DMS-114; sensitive cell line DMS114; read-out: half-growth-inhibitory concentration, or GI50. How it is done:
as §1, §2

AZD4547: the “sensitivity to FGFR inhibition” value in assay [1] was “highly sensitive”.
As for `CCN1CCN(c2ccc(Nc3cc(N(C)C(=O)Nc4c(Cl)c(OC)cc(OC)c4Cl)ncn3)cc2)CC1` [BG.J398], the “Average tumor growth reduction vs. vehicle” value in assay [2] (3 PDX models which benefit, bars (2)) is above 30%; in assay [2] (5 PDX models not benefitting, bars (1)), below 30%. Further, the “PDX models sensitive to FGFR inhibition” value in assay [2] (8 FGFR1 amplified PDX models) is listed as “Three of the 8 patient derived xenotransplant (PDX) models were sensitive”. Further, the “sensitivity to FGFR inhibition” value in assay [1] is reported as “highly sensitive”. The figures for the GI50 (in assay [3]; in the assay with H1581; in the assay with DMS114) were above 1000 nM, below 1000 nM and below 1000 nM, respectively. The “patients with durable, partial response (tumor volume change by RECIST)” value in assay [4] is 3 patients. In addition, the “patients with progressive disease (tumor volume change by RECIST)” value in assay [4] worked out at 5 patients.
